# Assays:
# Format in all cases: biochemical
# [1] = target: human JAK2 catalytic kinase (JH1) domain (Homo sapiens (Human), UniProt O60674); test: ADP-Glo Kinase Assay, recombinant JAK2 catalytic kinase (JH1) domain; details: recombinant JH1 domain 0.2 nM, 15 μM ATP, JAK3-974 peptide, mean, read-out: JAK2 biochem IC50 (nM) Mean
# Procedure: (§1) Compounds of the disclosure were assessed for their ability to inhibit TYK2, JAK1, JAK2, and JAK3 activity. The inhibitory properties of the compounds of the disclosure described herein can be evidenced by testing in any one of the following protocols.
# (§2) The kinase activity of recombinantly generated catalytic kinase (also known as JH1) domain of human JAK1, JAK2, JAK3 and TYK2 were evaluated in a plate-based assay using the ADP-Glo™ Kinase Assay platform. Specifically, 4 nM of recombinant JAK1 kinase domain is used to phosphorylate 50 μM of a JAK3-342 (sequence ALVDGYFRLTT) peptide in the presence of 35 μM ATP. Catalytic activities of recombinant JAK2, JAK3 and TYK2 kinase domain (0.2, 0.3 and 2 nM, respectively) are evaluated by the phosphorylation status of the JAK3-974 (50 μM; sequence LPLDKDYYVVR) peptide with the addition of ATP (15, 4 and 10 μM, respectively). The reactions proceed for 100 minutes and the catalytic activity is quantified by first depleting the unused ATP, converting the hydrolyzed ADP into ATP to generate luminescence in a luciferase reaction; which is the basis of the ADP-Glo platform. Compounds are tested at either 10 μM or 1 μM top concentration, 11 points of 3-fold dilution. The data is normalized and the percent activity versus log concentration of compound is fitted with a 4-parameter logistic model to generate a curve and an IC50 value.
# [2] = target: human JAK3 catalytic kinase (JH1) domain (Homo sapiens (Human), UniProt P52333); test: ADP-Glo Kinase Assay, recombinant JAK3 catalytic kinase (JH1) domain; details: recombinant JH1 domain 0.3 nM, 4 μM ATP, JAK3-974 peptide, mean, read-out: JAK3 biochem IC50 (nM) Mean
# Procedure: as §1, §2
# [3] = target: human TYK2 catalytic kinase (JH1) domain (Homo sapiens (Human), UniProt P29597); test: ADP-Glo Kinase Assay, recombinant TYK2 catalytic kinase (JH1) domain; details: recombinant JH1 domain 2 nM, 10 μM ATP, JAK3-974 peptide, mean, read-out: TYK2 biochem IC50 (nM) Mean
# Procedure: as §1, §2
# [4] = target: human JAK1 catalytic kinase (JH1) domain (Homo sapiens (Human), UniProt P23458); test: ADP-Glo Kinase Assay, recombinant JAK1 catalytic kinase (JH1) domain; details: recombinant JH1 domain 4 nM, 35 μM ATP, JAK3-342 peptide, mean, read-out: JAK1 biochem IC50 (nM) Mean
# Procedure: as §1, §2
# Chain of human JAK1 catalytic kinase (JH1) domain (P23458 875-1153): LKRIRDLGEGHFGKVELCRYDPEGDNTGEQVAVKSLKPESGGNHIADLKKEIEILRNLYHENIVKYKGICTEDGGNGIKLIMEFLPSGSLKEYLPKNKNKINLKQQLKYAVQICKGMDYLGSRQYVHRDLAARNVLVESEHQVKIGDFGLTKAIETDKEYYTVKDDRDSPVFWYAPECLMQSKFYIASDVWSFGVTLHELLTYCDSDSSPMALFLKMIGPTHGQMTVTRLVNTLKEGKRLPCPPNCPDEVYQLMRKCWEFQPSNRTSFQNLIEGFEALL
# Chain of human JAK3 catalytic kinase (JH1) domain (P52333 822-1111): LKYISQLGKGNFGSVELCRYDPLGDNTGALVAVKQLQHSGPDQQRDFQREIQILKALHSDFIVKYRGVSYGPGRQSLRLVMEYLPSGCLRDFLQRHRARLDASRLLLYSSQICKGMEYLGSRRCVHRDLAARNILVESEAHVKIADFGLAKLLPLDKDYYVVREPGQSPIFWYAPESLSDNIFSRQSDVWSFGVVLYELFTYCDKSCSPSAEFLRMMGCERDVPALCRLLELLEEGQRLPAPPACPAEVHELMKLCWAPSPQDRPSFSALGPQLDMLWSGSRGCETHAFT
# Chain of human TYK2 catalytic kinase (JH1) domain (P29597 897-1176): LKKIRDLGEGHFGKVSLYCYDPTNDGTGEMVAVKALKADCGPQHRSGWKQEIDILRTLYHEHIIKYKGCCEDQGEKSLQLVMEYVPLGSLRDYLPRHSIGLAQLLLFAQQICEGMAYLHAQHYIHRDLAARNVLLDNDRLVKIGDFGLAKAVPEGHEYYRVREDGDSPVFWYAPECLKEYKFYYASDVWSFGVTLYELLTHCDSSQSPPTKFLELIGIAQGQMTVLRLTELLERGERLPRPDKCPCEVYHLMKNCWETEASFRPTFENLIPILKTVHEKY
# Chain of human JAK2 catalytic kinase (JH1) domain (O60674 849-1124): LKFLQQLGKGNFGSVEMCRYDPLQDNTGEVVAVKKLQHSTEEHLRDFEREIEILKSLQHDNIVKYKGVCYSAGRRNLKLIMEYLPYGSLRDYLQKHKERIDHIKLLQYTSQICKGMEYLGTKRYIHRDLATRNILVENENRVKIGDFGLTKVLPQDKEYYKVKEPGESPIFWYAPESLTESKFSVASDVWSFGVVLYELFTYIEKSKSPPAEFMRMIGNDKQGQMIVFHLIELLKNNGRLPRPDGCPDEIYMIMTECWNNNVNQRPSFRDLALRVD
SMILES,IC50 [1] [nM],IC50 [2] [nM],IC50 [3] [nM],IC50 [4] [nM]
"O=C([C@H]1C[C@@H]1CO)N1C2CCC1CN(c1ncnn3cc(-c4cnn(C(F)F)c4)cc13)C2 (racemic) [Example 38, Rac-(3-(6-(1-(difluoromethyl)-1H-pyrazol-4-yl)pyrrolo[2,1-f][1,2,4]triazin-4-yl)-3,8-diazabicyclo[3.2.1]octan-8-yl)((1S,2S)-2-(hydroxymethyl)cyclopropyl)methanone]",8260,≥ 10000,326,1640
"O=C([C@H]1C[C@H]1F)N1C2CCC1CN(c1ncnn3cc(-c4cnn(C(F)F)c4)cc13)C2 (racemic) [Example 46, Rac-(3-(6-(1-(difluoromethyl)-1H-pyrazol-4-yl)pyrrolo[2,1-f][1,2,4]triazin-4-yl)-3,8-diazabicyclo[3.2.1]octan-8-yl)((1R,2R)-2-fluorocyclopropyl)methanone]",9740,6110,668,1230
"N#C[C@@H]1C[C@@H]1C(=O)N1C2CCC1CN(c1ncnn3cc(-c4cnn(C(F)F)c4)cc13)C2 (racemic) [Example 47, Rac-(1R,2S)-2-(3-(6-(1-(difluoromethyl)-1H-pyrazol-4-yl)pyrrolo[2,1-f][1,2,4]triazin-4-yl)-3,8-diazabicyclo[3.2.1]octane-8-carbonyl)cyclopropane-1-carbonitrile]",8360,6070,783,2530
"N#C[C@H]1C[C@@H]1C(=O)N1C2CCC1CN(c1ncnn3cc(-c4cnn(C(F)F)c4)cc13)C2 (racemic) [Example 53, Rac-(1S,2S)-2-(3-(6-(1-(difluoromethyl)-1H-pyrazol-4-yl)pyrrolo[2,1-f][1,2,4]triazin-4-yl)-3,8-diazabicyclo[3.2.1]octane-8-carbonyl)cyclopropane-1-carbonitrile]",3380,7370,166,840
"O=C([C@H]1C[C@@H]1F)N1C2CCC1CN(c1ncnn3cc(-c4cnn(C(F)F)c4)cc13)C2 (racemic) [Example 54, Rac-(3-(6-(1-(difluoromethyl)-1H-pyrazol-4-yl)pyrrolo[2,1-f][1,2,4]triazin-4-yl)-3,8-diazabicyclo[3.2.1]octan-8-yl)((1R,2S)-2-fluorocyclopropyl)methanone]",1320,4230,37.1,645
"Cn1cc(-c2cc3c(N4CC5CCC(C4)N5C(=O)[C@H]4C[C@H]4F)ncnn3c2)cn1 (racemic) [Example 60, Rac-((1R,2R)-2-fluorocyclopropyl)(3-(6-(1-methyl-1H-pyrazol-4-yl)pyrrolo[2,1-f][1,2,4]triazin-4-yl)-3,8-diazabicyclo[3.2.1]octan-8-yl)methanone]",8090,3080,563,1340
"Cn1cc(-c2cc3c(N4CC5CCC(C4)N5C(=O)[C@H]4C[C@@H]4F)ncnn3c2)cn1 (racemic) [Example 61, Rac-((1R,2S)-2-fluorocyclopropyl)(3-(6-(1-methyl-1H-pyrazol-4-yl)pyrrolo[2,1-f][1,2,4]triazin-4-yl)-3,8-diazabicyclo[3.2.1]octan-8-yl)methanone]",1870,3760,37.7,992
"Cn1cc(-c2cc3c(N4CC5CCC(C4)N5C(=O)[C@H]4C[C@H]4C#N)ncnn3c2)cn1 (racemic) [Example 65, Rac-(1R,2S)-2-(3-(6-(1-methyl-1H-pyrazol-4-yl)pyrrolo[2,1-f][1,2,4]triazin-4-yl)-3,8-diazabicyclo[3.2.1]octane-8-carbonyl)cyclopropane-1-carbonitrile]",9840,6790,1210,6090
"Cn1cc(-c2cc3c(N4CC5CCC(C4)N5C(=O)[C@H]4C[C@@H]4C#N)ncnn3c2)cn1 (racemic) [Example 66, Rac-(1S,2S)-2-(3-(6-(1-methyl-1H-pyrazol-4-yl)pyrrolo[2,1-f][1,2,4]triazin-4-yl)-3,8-diazabicyclo[3.2.1]octane-8-carbonyl)cyclopropane-1-carbonitrile]",3610,5540,242,1510
"O=C([C@H]1C[C@@H]1CO)N1C2CCC1CN(c1ncnn3cc(-c4cnn(C(F)F)c4)cc13)C2 (single isomer, unassigned) [Example 39]",9090,6380,762,2130
"O=C([C@@H]1C[C@H]1CO)N1C2CCC1CN(c1ncnn3cc(-c4cnn(C(F)F)c4)cc13)C2 (single isomer, unassigned) [Example 40]",9400,≥ 10000,289,5120
"O=C([C@H]1C[C@H]1F)N1C2CCC1CN(c1ncnn3cc(-c4cnn(C(F)F)c4)cc13)C2 (single isomer, unassigned) [Example 73]",≥ 10000,8860,987,2350
"Cn1cc(-c2cc3c(N4CC5CCC(C4)N5C(=O)[C@@H]4C[C@H]4C#N)ncnn3c2)cn1 (single isomer, unassigned) [Example 74]",1910,4040,126,1280
"O=C([C@H]1C[C@@H]1F)N1C2CCC1CN(c1ncnn3cc(-c4cnn(C(F)F)c4)cc13)C2 (single isomer, unassigned) [Example 75]",≥ 10000,5060,456,1580
"O=C([C@H]1CC1(F)F)N1C2CCC1CN(c1ncnn3cc(-c4cnn(C(F)F)c4)cc13)C2 (single isomer, unassigned) [Example 77]",1410,8880,46.3,1290
"N#C[C@@H]1C[C@H]1C(=O)N1C2CCC1CN(c1ncnn3cc(-c4cnn(C(F)F)c4)cc13)C2 (single isomer, unassigned) [Example 78]",1510,6880,120,869
"Cn1cc(-c2cc3c(N4CC5CCC(C4)N5C(=O)[C@H]4C[C@H]4F)ncnn3c2)cn1 (single isomer, unassigned) [Example 79]",≥ 10000,≥ 10000,626,9330
"Cn1cc(-c2cc3c(N4CC5CCC(C4)N5C(=O)[C@H]4C[C@@H]4F)ncnn3c2)cn1 (single isomer, unassigned) [Example 81]",1450,5610,31.2,1420
"Cn1cc(-c2cc3c(N4CC5CCC(C4)N5C(=O)[C@H]4C[C@H]4C#N)ncnn3c2)cn1 (single isomer, unassigned) [Example 85]",10000,4450,751,3310
"O=C([C@@H]1C[C@H]1F)N1C2CCC1CN(c1ccnn3cc([C@H]4CC4(F)F)cc13)C2 (single isomer, unassigned) [Example 135]",8220,≥ 10000,125,2010
"O=C([C@@H]1C[C@H]1F)N1C2CCC1CN(c1ccnn3cc([C@@H]4CC4(F)F)cc13)C2 (single isomer, unassigned) [Example 136]",≥ 10000,≥ 10000,381,6180
"Cn1cc(-c2cn3ncc(F)c(N4CC5CCC(C4)N5C(=O)[C@@H]4C[C@H]4F)c3n2)cn1 (stereo in doubt) [Example 141, (3-(7-fluoro-2-(1-methyl-1H-pyrazol-4-yl)imidazo[1,2-b]pyridazin-8-yl)-3,8-diazabicyclo[3.2.1]octan-8-yl)((1S,2R)-2-fluorocyclopropyl)methanone]",97,285,9.4,57
"COc1cc(-c2cn3ncc(F)c(N4CC5CCC(C4)N5C(=O)[C@@H]4C[C@H]4F)c3n2)ccn1 (stereo in doubt) [Example 142, (3-(7-fluoro-2-(2-methoxypyridin-4-yl)imidazo[1,2-b]pyridazin-8-yl)-3,8-diazabicyclo[3.2.1]octan-8-yl)((1S,2R)-2-fluorocyclopropyl)methanone]",270,514,19.6,46
"O=C([C@@H]1C[C@H]1F)N1C2CCC1CN(c1ncnn3cc(-c4cnn(C(F)F)c4)cc13)C2 [Example 1, (3-(6-(1-(difluoromethyl)-1H-pyrazol-4-yl)pyrrolo[2,1-f][1,2,4]triazin-4-yl)-3,8-diazabicyclo[3.2.1]octan-8-yl)((1S,2R)-2-fluorocyclopropyl)methanone]",315,1300,9,228

# From US20240360157A1, “TYK2 INHIBITORS” (BIOGEN MA INC., priority 2021, published 2024)
